Test results as given in the supplement of paper PMC10307832.

Experiments:
Test in all cases: relative viability (nuclei count vs DMSO), 5 days (fraction); higher = more cells survive
Ponatinib + OSI-027 = compound: Cc1ccc(C(=O)Nc2ccc(CN3CCN(C)CC3)c(C(F)(F)F)c2)cc1C#Cc1cnc2cccnn12 [Ponatinib] + COc1cccc2cc(-c3nc([C@H]4CC[C@H](C(=O)O)CC4)n4ncnc(N)c34)[nH]c12 [OSI-027] (partner 0.5 µM)
How it was run: (§1)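 Cells from lung cancer lines were seeded into 1536-well plates and, one day later, dosed by pin tool. Treatments were either a single drug or a fixed dose of an anchor drug with five library-drug doses (not always all listed) in √10 steps. After 5 days, nuclei were stained in a one-step fixation (final 0.05% Triton X-100, 1% formaldehyde, 1 ug/ml Hoechst) and counted on 4× images, and relative viability is the treated-to-vehicle nuclei ratio, as the median of duplicate plates.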

Ponatinib + Linsitinib = compound: Cc1ccc(C(=O)Nc2ccc(CN3CCN(C)CC3)c(C(F)(F)F)c2)cc1C#Cc1cnc2cccnn12 [Ponatinib] + C[C@]1(O)C[C@@H](c2nc(-c3ccc4ccc(-c5ccccc5)nc4c3)c3c(N)nccn32)C1 [Linsitinib] (partner 1 µM)
How it was run: as §1

Ponatinib + Phenformin = compound: Cc1ccc(C(=O)Nc2ccc(CN3CCN(C)CC3)c(C(F)(F)F)c2)cc1C#Cc1cnc2cccnn12 [Ponatinib] + N=C(N)NC(=N)NCCc1ccccc1 [Phenformin] (partner 250 µM)
How it was run: as §1

Pazopanib + Luminespib = compound: Cc1ccc(Nc2nccc(N(C)c3ccc4c(C)n(C)nc4c3)n2)cc1S(N)(=O)=O [Pazopanib] + CCNC(=O)c1noc(-c2cc(C(C)C)c(O)cc2O)c1-c1ccc(CN2CCOCC2)cc1 [Luminespib] (partner 0.01 µM)
How it was run: as §1

| Cell Line | relative viability (Ponatinib + OSI-027; first compound 0.002 µM) | relative viability (Ponatinib + OSI-027; first compound 0.006325 µM) | relative viability (Ponatinib + OSI-027; first compound 0.06325 µM) | relative viability (Ponatinib + OSI-027; first compound 0.2 µM) | relative viability (Ponatinib + Linsitinib; first compound 0.002 µM) | relative viability (Ponatinib + Linsitinib; first compound 0.006325 µM) | relative viability (Ponatinib + Linsitinib; first compound 0.06325 µM) | relative viability (Ponatinib + Linsitinib; first compound 0.2 µM) | relative viability (Ponatinib + Phenformin; first compound 0.002 µM) | relative viability (Ponatinib + Phenformin; first compound 0.006325 µM) | relative viability (Ponatinib + Phenformin; first compound 0.06325 µM) | relative viability (Ponatinib + Phenformin; first compound 0.2 µM) | relative viability (Pazopanib + Luminespib; first compound 0.01 µM) | relative viability (Pazopanib + Luminespib; first compound 0.03162 µM) | relative viability (Pazopanib + Luminespib; first compound 0.1 µM) | relative viability (Pazopanib + Luminespib; first compound 0.3162 µM) | relative viability (Pazopanib + Luminespib; first compound 1 µM) |
| --- | --- | --- | --- | --- | --- | --- | --- | --- | --- | --- | --- | --- | --- | --- | --- | --- | --- |
| SW 1573 | 0.567 | 0.483 | 0.718 | 0.522 | 0.838 | 0.775 | 0.777 | 0.819 | 0.35 | 0.392 | 0.292 | 0.405 | 0.24 | 0.17 | 0.266 | 0.205 | 0.236 |
| COR-L 105 | 0.638 | 0.807 | 1.03 | 0.744 | 0.944 | 0.875 | 1.39 | 1.04 | 0.421 | 0.479 | 0.501 | 0.466 | 1.06 | 0.539 | 0.765 | 0.909 | 0.787 |
| NCI-H1975 | 0.602 | 0.575 | 0.47 | 0.503 | 0.876 | 0.867 | 0.99 | 1.01 | 0.365 | 0.395 | 0.439 | 0.398 | 0.157 | 0.326 | 0.275 | 0.272 | 0.331 |
| NCI-H1993 | 0.516 | 0.495 | 0.469 | 0.567 | 0.761 | 0.763 | 0.742 | 0.819 | 0.57 | 0.512 | 0.532 | 0.508 |  | 0.728 | 0.885 | 0.885 | 0.913 |
| SK-LU-1 | 0.334 | 0.345 | 0.344 | 0.248 | 0.943 | 1.19 | 1.18 | 0.997 | 0.445 | 0.469 | 0.475 | 0.328 | 0.222 | 0.221 | 0.175 | 0.22 | 0.232 |
| NCI-H23 | 0.621 | 0.645 | 0.53 | 0.456 | 0.501 | 0.602 | 0.705 | 0.608 | 0.759 | 0.756 | 0.815 | 0.593 | 0.227 | 0.209 | 0.219 | 0.226 | 0.231 |
| EMC-BAC-2 | 0.368 | 0.376 | 0.39 | 0.368 | 0.82 | 0.824 | 0.914 | 0.776 | 0.495 | 0.449 | 0.508 | 0.487 |  | 1.2 | 1.16 | 1.14 | 1.25 |
| NCI-H3122 | 1 | 0.988 | 1.02 | 0.834 | 0.982 | 1.02 | 1.01 | 1.06 | 0.301 | 0.378 | 0.384 | 0.356 | 0.0969 | 0.0909 | 0.106 | 0.0886 | 0.0721 |
| SK-MES-1 | 0.566 | 0.653 | 0.717 | 0.537 | 0.99 | 1.12 | 1.12 | 1.07 | 0.676 | 0.65 | 0.716 | 0.548 | 0.846 | 0.79 | 0.746 | 0.913 | 0.75 |
| EPLC-272H | 0.283 | 0.278 | 0.299 | 0.268 | 1.06 | 1.24 | 1.31 | 0.801 | 0.305 | 0.336 | 0.292 | 0.316 |  | 0.281 | 0.366 | 0.344 | 0.52 |
| NCI-H1915 | 0.546 | 0.651 | 0.639 | 0.56 | 1.02 | 1.08 | 1.09 | 0.995 | 0.332 | 0.363 | 0.371 | 0.356 | 0.871 | 0.805 | 0.889 | 0.701 | 0.699 |
| NCI-H647 | 0.565 | 0.716 | 0.69 | 0.502 | 1.22 | 1.01 | 1.05 | 1.1 | 0.413 | 0.626 | 0.699 | 0.42 | 0.244 | 0.124 | 0.199 | 0.217 | 0.14 |
| NCI-H441 | 0.47 | 0.606 | 0.482 | 0.388 | 0.48 | 0.576 | 0.478 | 0.5 | 0.818 | 0.866 | 0.941 | 0.697 | 0.343 | 0.485 | 0.311 | 0.274 | 0.317 |
| NCI-H2228 | 0.474 | 0.431 | 0.705 | 0.376 | 0.652 | 0.711 | 0.874 | 0.73 | 0.356 | 0.356 | 0.342 | 0.357 | 0.142 | 0.135 | 0.153 | 0.155 | 0.177 |
| NCI-H650 | 0.378 | 0.49 | 0.456 | 0.466 | 0.641 | 0.83 | 0.809 | 0.743 | 0.407 | 0.426 | 0.438 | 0.419 | 0.682 | 0.773 | 0.669 | 0.813 | 0.735 |
| NCI-H1395 | 0.519 | 0.57 | 0.558 | 0.505 |  | 1.05 | 0.915 | 0.832 | 0.417 | 0.432 | 0.386 | 0.377 | 0.566 | 0.588 | 0.642 | 0.781 | 0.62 |
| NCI-H358 | 0.813 | 0.816 | 0.998 | 0.672 | 0.847 | 0.771 | 0.758 | 0.522 | 0.375 | 0.46 | 0.4 | 0.299 | 0.398 | 0.374 | 0.284 | 0.337 | 0.441 |
| NCI-H2085 | 0.624 | 0.704 | 0.753 | 0.727 | 0.831 | 0.831 | 1.09 | 0.741 | 0.649 | 0.708 | 0.682 | 0.641 | 0.461 | 0.41 | 0.5 | 0.434 | 0.425 |
| NCI-H838 | 0.416 | 0.416 | 0.482 | 0.349 | 0.939 | 1.05 | 1.19 | 0.858 | 0.567 | 0.715 | 0.527 | 0.442 | 0.351 | 0.351 | 0.282 | 0.21 | 0.322 |
